Reference: PubChem BioAssay (NCI)
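Growth conditions: 96-well plates. Treatment: test compound, 48 hours, 5 concentrations. Analysis: linear interpolation between bracketing concentrations; unreached endpoints set to highest concentration. Here, GI50 denotes the concentration required for 50% inhibition of growth. The concentration for full growth arrest is given as TGI.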

Experiments:
Assay in all cases: NCI tumour cell line growth inhibition, 48 h
[1] = system: A498 renal
[2] = system: A549 NSCLC
[3] = system: BT-549 breast
[4] = system: CAKI-1 renal
[5] = system: CCRF-CEM leukemia
[6] = system: DU-145 prostate
[7] = system: EKVX NSCLC
[8] = system: HCC-2998 colon
[9] = system: HCT-15 colon
[10] = system: HL-60(TB) leukemia
[11] = system: HOP-62 NSCLC
[12] = system: HOP-92 NSCLC
[13] = system: HS 578T breast
[14] = system: HT29 colon
[15] = system: IGROV1 ovarian
[16] = system: K-562 leukemia
[17] = system: KM12 colon
[18] = system: M14 melanoma
[19] = system: MALME-3M melanoma
[20] = system: MCF7 breast
[21] = system: MDA-MB-231 breast
[22] = system: MDA-MB-435
[23] = system: MDA-MB-468 breast
[24] = system: MOLT-4 leukemia
[25] = system: NCI-H226 lung
[26] = system: NCI-H23 lung
[27] = system: NCI-H460 lung
[28] = system: NCI-H522 lung
[29] = system: NCI/ADR-RES ovarian
[30] = system: OVCAR-3 ovarian
[31] = system: OVCAR-4 ovarian
[32] = system: OVCAR-5 ovarian
[33] = system: PC-3 prostate
[34] = system: RPMI-8226 leukemia
[35] = system: RXF 393 renal
[36] = system: SF-539 CNS
[37] = system: SK-MEL-2 melanoma
[38] = system: SK-MEL-28 melanoma
[39] = system: SK-MEL-5 melanoma
[40] = system: SN12C renal
[41] = system: SNB-19 CNS
[42] = system: SNB-75 CNS
[43] = system: SR leukemia
[44] = system: SW-620 colon
[45] = system: TK-10 renal
[46] = system: UACC-257 melanoma
[47] = system: UACC-62 melanoma
[48] = system: UO-31 renal
[49] = system: 786-0 renal
[50] = system: ACHN renal
[51] = system: COLO 205 colon
[52] = system: HCT-116 colon
[53] = system: LOX IMVI melanoma
[54] = system: OVCAR-8 ovarian
[55] = system: SF-268 CNS
[56] = system: SF-295 CNS
[57] = system: SK-OV-3 ovarian
[58] = system: T-47D breast

`CN1CCN(c2ccc(Nc3nc(N4CCN(S(=O)(=O)c5ccc(F)cc5)CC4)c4sccc4n3)cc2)CC1` was tested, and the GI50 [1] was 19.2 µM, the TGI [1] was 34.5 µM and the GI50 [2] was 1.87 µM. The TGI [2] was 4.44 µM, the GI50 [3] was 17.8 µM and the TGI [3] was 53.1 µM. The GI50 [4] was 2.98 µM, the TGI [4] was 10.1 µM and the GI50 [5] was 2.39 µM. It also gave a TGI [5] of 6.78 µM, a GI50 [6] of 1.97 µM and a TGI [6] of 3.76 µM. The GI50 [7] was 3.95 µM, the TGI [7] was 22.9 µM and the GI50 [8] was 1.69 µM. For the same compound, the TGI [8] was 3.23 µM, the GI50 [9] was 1.67 µM and the TGI [9] was 3.15 µM. It also gave a GI50 [10] of 2.07 µM, a TGI [10] of 4.25 µM and a GI50 [11] of 11.5 µM. The TGI [11] was over 100 µM, the GI50 [12] was 7.3 µM and the TGI [12] was 24.1 µM. The GI50 [13] was 17.8 µM, the TGI [13] was 55.4 µM and the GI50 [14] was 1.83 µM. For the same compound, the TGI [14] was 3.6 µM, the GI50 [15] was 2.19 µM and the TGI [15] was 4.74 µM. For the same compound, the GI50 [16] was 2.13 µM, the TGI [16] was 5.73 µM and the GI50 [17] was 2.02 µM. It also gave a TGI [17] of 3.97 µM, a GI50 [18] of 1.84 µM and a TGI [18] of 3.56 µM. The GI50 [19] was 1.72 µM, the TGI [19] was 3.15 µM and the GI50 [20] was 1.66 µM. It also gave a TGI [20] of 3.18 µM, a GI50 [21] of 1.9 µM and a TGI [21] of 3.4 µM. It also gave a GI50 [22] of 1.77 µM, a TGI [22] of 3.26 µM and a GI50 [23] of 1.5 µM. It also gave a TGI [23] of 2.89 µM, a GI50 [24] of 2.45 µM and a TGI [24] of 6.05 µM. It also gave a GI50 [25] of 18.7 µM, a TGI [25] of 48.2 µM and a GI50 [26] of 4.35 µM. For the same compound, the TGI [26] was 18.1 µM, the GI50 [27] was 1.86 µM and the TGI [27] was 3.45 µM. It also gave a GI50 [28] of 1.64 µM, a TGI [28] of 3.12 µM and a GI50 [29] of 2 µM. For the same compound, the TGI [29] was 4.42 µM, the GI50 [30] was 1.91 µM and the TGI [30] was 3.51 µM. For the same compound, the GI50 [31] was 2 µM, the TGI [31] was 4.2 µM and the GI50 [32] was 2.36 µM. It also gave a TGI [32] of 5.94 µM, a GI50 [33] of 2.13 µM and a TGI [33] of 5.11 µM. For the same compound, the GI50 [34] was 2.28 µM, the TGI [34] was 4.98 µM and the GI50 [35] was 1.61 µM. It also gave a TGI [35] of 3.14 µM, a GI50 [36] of 1.75 µM and a TGI [36] of 3.18 µM. It also gave a GI50 [37] of 19.7 µM, a TGI [37] of 39.2 µM and a GI50 [38] of 1.68 µM. The TGI [38] was 3.15 µM, the GI50 [39] was 1.68 µM and the TGI [39] was 3.05 µM. For the same compound, the GI50 [40] was 1.73 µM, the TGI [40] was 3.25 µM and the GI50 [41] was 2.64 µM. It also gave a TGI [41] of 8.71 µM, a GI50 [42] of 11 µM and a TGI [42] of 26.8 µM. The GI50 [43] was 2.01 µM, the TGI [43] was 4.85 µM and the GI50 [44] was 1.8 µM. For the same compound, the TGI [44] was 3.33 µM, the GI50 [45] was 2.61 µM and the TGI [45] was 7.37 µM. The GI50 [46] was 1.58 µM, the TGI [46] was 3.19 µM and the GI50 [47] was 1.71 µM. It also gave a TGI [47] of 3.15 µM, a GI50 [48] of 13.4 µM and a TGI [48] of 29.1 µM.

In the case of `CONC[C@]1(C)C=C2C(=O)[C@](C)(O)C3(CC3)C(C)=C2[C@H]1O`, the GI50 [49] is reported as 1.65 µM, the TGI [49] is reported as 6.9 µM and the GI50 [1] is reported as 2.23 µM. For the same compound, the TGI [1] was 5.39 µM, the GI50 [2] was 0.324 µM and the TGI [2] was 11.3 µM. The GI50 [50] was 0.233 µM, the TGI [50] was 0.565 µM and the GI50 [3] was 1.02 µM. The TGI [3] was 4.67 µM, the GI50 [4] was 1.05 µM and the TGI [4] was 18.8 µM. It also gave a GI50 [5] of 0.57 µM, a TGI [5] of 6.66 µM and a GI50 [51] of 1.48 µM. It also gave a TGI [51] of 3.21 µM, a GI50 [6] of 0.436 µM and a TGI [6] of 16.5 µM. For the same compound, the GI50 [7] was 1.77 µM, the TGI [7] was 4.85 µM and the GI50 [8] was 1.38 µM. The TGI [8] was 3.4 µM, the GI50 [52] was 0.298 µM and the TGI [52] was 46.4 µM. It also gave a GI50 [9] of 0.384 µM, a TGI [9] of over 100 µM and a GI50 [10] of 0.485 µM. It also gave a TGI [10] of 6.44 µM, a GI50 [11] of 1.63 µM and a TGI [11] of 4.55 µM. It also gave a GI50 [12] of 0.705 µM, a TGI [12] of 4.32 µM and a GI50 [13] of 2.55 µM. It also gave a TGI [13] of 7.26 µM, a GI50 [14] of 0.42 µM and a TGI [14] of 6.66 µM. The GI50 [15] was 1.6 µM, the TGI [15] was 8.01 µM and the GI50 [16] was 0.661 µM. It also gave a TGI [16] of over 100 µM, a GI50 [17] of 2.32 µM and a TGI [17] of 15.4 µM. For the same compound, the GI50 [53] was 0.868 µM, the TGI [53] was 6.63 µM and the GI50 [18] was 1.41 µM. It also gave a TGI [18] of 4.87 µM, a GI50 [19] of 1.05 µM and a TGI [19] of 2.49 µM. For the same compound, the GI50 [20] was 0.298 µM, the TGI [20] was 5.34 µM and the GI50 [21] was 1.75 µM. For the same compound, the TGI [21] was 5.88 µM, the GI50 [22] was 1.84 µM and the TGI [22] was 3.9 µM. For the same compound, the GI50 [23] was 0.518 µM, the TGI [23] was 1.97 µM and the GI50 [24] was 0.688 µM. For the same compound, the TGI [24] was over 100 µM, the GI50 [25] was 2.95 µM and the TGI [25] was 9.13 µM. The GI50 [26] was 0.422 µM, the TGI [26] was 1.89 µM and the GI50 [27] was 0.353 µM. For the same compound, the TGI [27] was 11 µM, the GI50 [28] was 0.314 µM and the TGI [28] was 1.47 µM. It also gave a GI50 [30] of 2.66 µM, a TGI [30] of 7.96 µM and a GI50 [31] of 2.9 µM. The TGI [31] was 9.09 µM, the GI50 [32] was 0.346 µM and the TGI [32] was 5.65 µM. It also gave a GI50 [54] of 1.44 µM, a TGI [54] of 4.35 µM and a GI50 [33] of 0.754 µM. The TGI [33] was 6.12 µM, the GI50 [34] was 9.67 µM and the TGI [34] was over 100 µM. For the same compound, the GI50 [35] was 0.41 µM, the TGI [35] was 1.65 µM and the GI50 [55] was 1.07 µM. It also gave a TGI [55] of 12.8 µM, a GI50 [56] of 0.345 µM and a TGI [56] of 42.4 µM. For the same compound, the GI50 [36] was 1.28 µM, the TGI [36] was 2.79 µM and the GI50 [37] was 0.858 µM. The TGI [37] was 2.25 µM, the GI50 [38] was 1.81 µM and the TGI [38] was 3.78 µM. The GI50 [39] was 1.05 µM, the TGI [39] was 4.95 µM and the GI50 [57] was 1.31 µM. For the same compound, the TGI [57] was 4.83 µM, the GI50 [40] was 2.33 µM and the TGI [40] was 9.36 µM. For the same compound, the GI50 [41] was 2.12 µM, the TGI [41] was 7.58 µM and the GI50 [42] was 1.76 µM. The TGI [42] was 3.8 µM, the GI50 [43] was 0.65 µM and the TGI [43] was over 100 µM. The GI50 [44] was 1.78 µM, the TGI [44] was over 100 µM and the GI50 [58] was 2.05 µM. It also gave a TGI [58] of 7.89 µM, a GI50 [45] of 3.32 µM and a TGI [45] of 19.2 µM. The GI50 [46] was 1.72 µM, the TGI [46] was 4.62 µM and the GI50 [47] was 1.55 µM. For the same compound, the TGI [47] was 3.01 µM, the GI50 [48] was 1.27 µM and the TGI [48] was 4.39 µM.
